Experimental data published in ChEMBL document CHEMBL6083182, “Development of Peptide Paratope Mimics Derived from the Anti-ROR1 Antibody and Long-Acting Peptide-Drug Conjugates for Targeted Cancer Therapy” (J Med Chem, 2024).
pIC50, pKd: −log10 of the molar value. One block for each molecule: values may come before it. The source made the active and inactive calls. The rule behind the calls is not given here.

Columns and labels:
MDA-MB-231 [1] = test: Induction of apoptosis in human MDA-MB-231 cells assessed as necrotic cells at 16 nM incubated for 24 hrs by AnnexinV-FITC/PI staining based flow cytometry (reference value: 0.034%); type: functional
MDA-MB-231 [2] = test: Antitumor activity against human MDA-MB-231 cells xenografted in BALB/c nude mouse assessed as tumor growth inhibition at 5 mg/kg, iv administered once every 3 days for 27 days starting from day 3; type: functional, organism-based; details: time 24.0 day
[3] = Toxicity in BALB/c nude mouse xenografted with human MDA-MB-231 cells assessed as appearance of apoptotic/necrotic cells in kidney at 5 mg/kg, iv administered once every 3 days for 27 days starting from day 3 by H and E staining based analysis; type: organism-based; details: in vivo, 576 h, time 24 day
[4] = Toxicity in BALB/c nude mouse xenografted in human MDA-MB-231 cells assessed as increase in AST level at 5 mg/kg, iv administered once every 3 days for 27 days; type: organism-based; details: in vivo, 576 h, time 24 day
[5] = Toxicity in BALB/c nude mouse xenografted in human MDA-MB-231 cells assessed as increase in ALP level at 5 mg/kg, iv administered once every 3 days for 27 days starting from day 3; type: organism-based; details: in vivo, 576 h, time 24 day
[6] = Toxicity in BALB/c nude mouse xenografted with human MDA-MB-231 cells assessed as appearance of apoptotic/necrotic cells in liver at 5 mg/kg, iv administered once every 3 days for 27 days starting from day 3 by H and E staining based analysis; type: organism-based; details: in vivo, 576 h, time 24 day
MDA-MB-231 [7] = test: Induction of apoptosis in human MDA-MB-231 cells assessed as early apoptotic cells at 16 nM incubated for 24 hrs by AnnexinV-FITC/PI staining based flow cytometry (reference value: 0%); type: functional
[8] = Toxicity in BALB/c nude mouse xenografted in human MDA-MB-231 cells assessed as increase in ALT level at 5 mg/kg, iv administered once every 3 days for 27 days starting from day 3; type: organism-based; details: in vivo, 576 h, time 24 day
SK-HEP1 = test: Cytotoxicity against human SK-HEP1 cells assessed as decrease in cell viability incubated for 24 hrs by CCK-8 assay; type: functional, cell-based; details: SK-HEP1, 24 h
MDA-MB-231 [9] = test: Cytotoxicity against ROR1-positive human MDA-MB-231 cells assessed as decrease in cell viability incubated for 24 hrs by CCK-8 assay; type: functional, cell-based; details: MDA-MB-231, 24 h
[10] = Cytotoxicity against human MCF-10A cells assessed as decrease in cell viability incubated for 24 hrs by CCK-8 assay; type: toxicity, cell-based
[11] = Toxicity in BALB/c nude mouse xenografted with human MDA-MB-231 cells assessed as body weight loss at 5 mg/kg, iv administered once every 3 days for 27 days starting from day 3; type: organism-based; details: in vivo, 576 h, time 24 day
[12] = Toxicity in BALB/c nude mouse xenografted with human MDA-MB-231 cells assessed as appearance of apoptotic/necrotic cells in heart at 5 mg/kg, iv administered once every 3 days for 27 days starting from day 3 by H and E staining based analysis; type: organism-based; details: in vivo, 576 h, time 24 day
MDA-MB-231 [13] = test: Induction of apoptosis in human MDA-MB-231 cells assessed as late apoptotic cells at 16 nM incubated for 24 hrs by AnnexinV-FITC/PI staining based flow cytometry (reference value: 0.034%); type: functional
[14] = Toxicity in BALB/c nude mouse xenografted in human MDA-MB-231 cells assessed as increase in urea level at 5 mg/kg, iv administered once every 3 days for 27 days starting from day 3; type: organism-based; details: in vivo, 576 h, time 24 day
MDA-MB-231 [15] = test: Antitumor activity against human MDA-MB-231 cells xenografted in BALB/c nude mouse assessed as reduction in tumor volume at 5 mg/kg, iv measured after first injection starting from day 3 on day 6; type: functional, organism-based; details: time 3.0 day
[16] = Toxicity in BALB/c nude mouse xenografted with human MDA-MB-231 cells assessed as appearance of apoptotic/necrotic cells in lungs at 5 mg/kg, iv administered once every 3 days for 27 days starting from day 3 by H and E staining based analysis; type: organism-based; details: in vivo, 576 h, time 24 day
MDA-MB-231 [17] = test: Induction of apoptosis in human MDA-MB-231 cells at 10 uM incubated for 24 hrs by Annexin V-FITC/PI staining based flow cytometric analysis; type: functional, cell-based
[18] = Drug uptake in ROR1-positive human MDA-MB-231 cells assessed as increase in fluorescence intensity incubated for 0.25 to 2 hrs by Hoechst 33342 staining based confocal fluorescence microscopic analysis; type: ADME, cell-based; details: time 0.25-2 hrs
MDA-MB-231 [19] = test: Induction of apoptosis in human MDA-MB-231 cells assessed as viable cells at 16 nM incubated for 24 hrs by AnnexinV-FITC/PI staining based flow cytometry (reference value: 99.9%); type: functional; details: read-out: Activity
[20] = Drug uptake in BALB/c nude mouse kidney xenografted with human MDA-MB-231 cells assessed as increase in fluorescence signal administered as indocyanine green dye conjugate and measured after 1 hrs by ex-vivo imaging analysis; type: ADME, tissue-based
[21] = Drug distribution in BALB/c nude mouse tumor xenografted with human MDA-MB-231 cells assessed as increase in fluorescence signal administered as indocyanine green dye conjugate and measured after 1 hrs by DAPI staining based immunofluorescence analysis; type: ADME, tissue-based, Neoplasm; details: in vivo
[22] = target: T1, Inactive tyrosine-protein kinase transmembrane receptor ROR1 (Homo sapiens, UniProt Q01973); test: Binding affinity to N-terminal His/GST-tagged recombinant human ROR1 (453 to 783 residues) extracted from baculovirus infected insect cells assessed as dissociation constant by SPR analysis
[23] = Drug penetration in human MDA-MB-231 cell spheroids assessed as fluorescence penetration rate at 10 uM administered as FITC-labeled compound and measured at 1 hrs by dual-color in vivo high-speed two-photon imaging system; type: ADME; details: mda-mb-231, 1 h
[24] = target: T1, Inactive tyrosine-protein kinase transmembrane receptor ROR1; test: Binding affinity to ROR1 positive human MDA-MB-231 cells at 10 uM administered as FITC-labeled compound and measured after 30 mins by Hoechst 33342 staining based confocal fluorescence microscopic analysis; type: cell-based
[25] = Drug uptake in BALB/c nude mouse tumor xenografted with human MDA-MB-231 cells assessed as increase in fluorescence signal administered as indocyanine green dye conjugate and measured after 0.5 hrs by invivo imaging analysis; type: ADME, tissue-based, Neoplasm; details: in vivo
[26] = Drug uptake in BALB/c nude mouse liver xenografted with human MDA-MB-231 cells assessed as increase in fluorescence signal administered as indocyanine green dye conjugate and measured after 1 hrs by ex-vivo imaging analysis; type: ADME, tissue-based
[27] = Drug uptake in ROR1 positive human MDA-MB-231 cells administered as FITC-labeled compound and measured after 30 to 120 mins by Hoechst 33342 staining based confocal fluorescence microscopic analysis; type: ADME, cell-based; details: time 30-120 min
Homo sapiens = organism: Homo sapiens; test: Binding affinity to CD16A (unknown origin) by SPR analysis
MCF7 = test: Binding affinity to ROR1 negative human MCF7 cells at 10 uM administered as FITC-labeled compound and measured after 30 mins by Hoechst 33342 staining based confocal fluorescence microscopic analysis; type: functional, cell-based
[28] = Drug uptake in BALB/c nude mouse tumor xenografted with human MDA-MB-231 cells assessed as increase in fluorescence signal administered as indocyanine green dye conjugate and measured after 1 hrs by ex-vivo imaging analysis; type: ADME, tissue-based, Neoplasm
[29] = Drug penetration in human MDA-MB-231 cell spheroids assessed as increase in penetration rate at 10 uM administered as FITC-labeled compound and measured at 0.5 hrs by dual-color in vivo high-speed two-photon imaging system; type: ADME; details: mda-mb-231, 0.5 h

T1 sequence (Q01973 whole entry, the tested form may be a part): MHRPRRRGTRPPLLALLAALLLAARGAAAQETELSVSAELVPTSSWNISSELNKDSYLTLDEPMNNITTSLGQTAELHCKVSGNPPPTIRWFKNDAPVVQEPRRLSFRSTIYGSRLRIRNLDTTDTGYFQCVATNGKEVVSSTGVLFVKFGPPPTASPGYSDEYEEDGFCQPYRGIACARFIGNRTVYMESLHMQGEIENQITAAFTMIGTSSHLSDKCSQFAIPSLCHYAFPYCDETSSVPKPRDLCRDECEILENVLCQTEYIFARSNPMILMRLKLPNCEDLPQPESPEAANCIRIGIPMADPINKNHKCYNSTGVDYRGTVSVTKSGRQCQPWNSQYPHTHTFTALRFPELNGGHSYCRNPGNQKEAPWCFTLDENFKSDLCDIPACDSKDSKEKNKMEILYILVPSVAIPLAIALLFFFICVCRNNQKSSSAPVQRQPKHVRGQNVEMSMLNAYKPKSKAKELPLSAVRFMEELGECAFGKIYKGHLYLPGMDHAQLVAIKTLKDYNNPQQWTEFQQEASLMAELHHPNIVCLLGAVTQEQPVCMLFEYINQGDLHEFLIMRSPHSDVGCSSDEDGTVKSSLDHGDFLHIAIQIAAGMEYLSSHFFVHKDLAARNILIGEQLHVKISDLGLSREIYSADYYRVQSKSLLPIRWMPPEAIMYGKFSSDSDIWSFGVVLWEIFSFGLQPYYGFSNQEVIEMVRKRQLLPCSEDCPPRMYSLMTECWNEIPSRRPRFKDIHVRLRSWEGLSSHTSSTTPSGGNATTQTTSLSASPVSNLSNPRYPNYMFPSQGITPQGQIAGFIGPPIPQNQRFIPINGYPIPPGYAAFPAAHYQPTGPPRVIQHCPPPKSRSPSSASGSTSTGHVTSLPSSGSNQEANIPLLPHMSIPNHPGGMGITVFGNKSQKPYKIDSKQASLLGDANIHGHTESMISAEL

Drug uptake [18]: Active
Molecule: COc1cccc2c1C(=O)c1c(O)c3c(c(O)c1C2=O)C[C@@](O)(C(=O)CO)C[C@@H]3O[C@H]1C[C@H](N)[C@H](O)[C@H](C)O1 [DOXORUBICIN]
Activity (MDA-MB-231 [1]): 0.39%
Activity (MDA-MB-231 [2]): Not active; Poor Antitumor Effect Observed
Activity [3]: Toxic
Activity [4]: Toxic
Activity [5]: Toxic
Activity [6]: Toxic
Activity (MDA-MB-231 [7]): 24.9%
Activity [8]: Toxic
pIC50 (SK-HEP1): 7.55
pIC50 (MDA-MB-231 [9]): 6.74
IC50 at 24 h [10]: 121 nM
Activity [11]: Toxic
Activity [12]: Toxic
Activity (MDA-MB-231 [13]): 3.25%
Activity [14]: Toxic
Activity (MDA-MB-231 [15]): inactive
Activity [16]: Toxic
Activity (MDA-MB-231 [17]): Active; Exhibited Apoptosis Mostly In Late Stage
viability at 0.016 µM (MDA-MB-231 [19]): 71.5%

Drug uptake [20]: Active
Drug uptake [21]: Active
pKd [22]: 8.80
Drug uptake [23]: ~ 100%
Activity [24]: Active
Drug uptake [25]: Active
Drug uptake [26]: Active
Drug uptake [27]: Active
Drug uptake [28]: Active
Drug uptake [29]: Active
Molecule: H-SDINDRQIPGYSTYWGDF-NH2
Activity (Homo sapiens): Not active; Abnormal Binding Affinity Curves Observed
Activity (MCF7): inactive
